The values below come from patent US5700833A, “Isocarbacyclin derivatives” (Research Developement Corporation of Japan, priority 1995, dated 1997).

pIC50: −log10 of the molar value.

The conditions of series [1]: neutral or oxidizing conditions; cited from earlier work.
In series [2] the test system is prostacyclin binding sites in cerebral hemisphere. The conditions noted are these: autoradiography, frozen cryostat sections; cited from earlier work.
The subject of the next series is dopamine D1 receptors. Particulars: cited from earlier work.
Another series concerns nervous system. The conditions noted are these: cited from earlier work.
Series [3] deals with T1, prostacyclin receptor (PNS) in the medulla oblongata nucleus ([^3 H] isocarbacyclin receptor) (Rattus norvegicus, UniProt P43253).
T1 construct: Blood ingredients were removed from the brain of a rat by systemic perfusion; from tissue; host or cells: rat brain, frozen sections, medulla oblongata nucleus (nucleus solitarius) read by autoradiography
Briefly: Displacement test relative to tritium-labelled isocarbacyclin, medulla oblongata nucleus (PNS), autoradiography of frozen brain sections. Particulars: 10 nM [^3 H]isocarbacyclin, 4° C., 2 h, pH 7.4, read-out: Binding ratio to [^3 H] isocarbacyclin receptor; for activity at 0.3 µM: un-labelled compound 3 × 10^-7 M; for activity at 0.03 µM: un-labelled compound 3 × 10^-8 M; for activity at 0.003 µM: un-labelled compound 3 × 10^-9 M; for activity at 1 µM: un-labelled compound 10^-6 M; for activity at 0.1 µM: un-labelled compound 10^-7 M; for activity at 0.01 µM: un-labelled compound 10^-8 M. Here is the method:
(§1) Blood ingredients were removed from the brain of a rat by systemic perfusion, and were frozen, thus preparing a frozen section having a thickness of 10 μm. This section was incubated with 10 nM [^3 H]isocarba cyclin and isocarbacyclin derivatives at various concentrations, at 4° C. for two hours in 50 mM Tris/HCl pH 7.4 and 20 mM MgCl2 solution. After incubation and washing, the solution was dried, thereby preparing an autoradiography film of the section. A displacement value for each derivative was determined by quantitative analysis of the autoradiography (n=at least 4).

Series [4] relates to prostacyclin receptor (CNS) in the thalamus ([^3 H] isocarbacyclin receptor). Put plainly: Displacement test relative to tritium-labelled isocarbacyclin, thalamus (CNS), autoradiography of frozen brain sections. The class given is binding, rat. Particulars: for Binding ratio to [^3 H] isocarbacyclin receptor: thalamus (CNS), 10 nM [^3 H]isocarbacyclin, 4° C., 2 h, pH 7.4. Here is the method: as §1
1) The results in the thalamus (CNS) are shown in Tables 1 and 2 for the following compounds: [drawing 27]

The subject of the next series is platelets. Briefly: Platelet aggregation inhibiting activity (ADP-induced, platelet rich plasma). The class given is cell-based, rat. The conditions noted are these: for pIC50: rat platelet rich plasma, 100 μM ADP, 5 μl, 37° C., 1 min preincubation. The protocol: Blood was totally taken from the abdominal aorta of an anesthetized rat (body weight: 500 g). Then, 1/10 volume part of 3.8% sodium citrate was added to the sampled blood and the mixture was centrifugally separated at 1,000 rpm for ten minutes to achieve an upper layer of platelet rich plasma (PRP). The lower layer was then further centrifugally separated at 3,000 rpm for ten minutes to prepare platelet poor plasma (PPP). The number of platelets in PRP was measured, and PPP was diluted to adjust the number to […] to serve as a platelet solution. The platelet solution was placed in an amount of 90 μl into a cuvette, and the drug to be tested in an amount of […] was added for incubation at 37° C. for one minute. Then, an aggregation agent (100 μM ADP) in an amount of 5 μl was added to cause aggregation of platelets, and changes in […] were measured. Control of aggregation activity was conducted by using turbidity upon addition of physiological saline.

Series [5] deals with binding site of iloprost in platelets. Particulars: cited from earlier work.
In series [6] the test system is platelets aggregation / vasodilation. The conditions noted are these: compared with natural prostacyclin; cited from earlier work.
[7] abbreviates: un-labelled compound 3 × 10^-7 M, 0.3 µM.
The mark [8] stands for this setting: un-labelled compound 3 × 10^-8 M, 0.03 µM.
[9] abbreviates: un-labelled compound 3 × 10^-9 M.
Where [10] appears, read: un-labelled compound 10^-6 M, 1 µM.
Where [11] appears, read: un-labelled compound 10^-7 M, 0.1 µM.

T1 sequence (P43253 whole entry, the tested form may be a part): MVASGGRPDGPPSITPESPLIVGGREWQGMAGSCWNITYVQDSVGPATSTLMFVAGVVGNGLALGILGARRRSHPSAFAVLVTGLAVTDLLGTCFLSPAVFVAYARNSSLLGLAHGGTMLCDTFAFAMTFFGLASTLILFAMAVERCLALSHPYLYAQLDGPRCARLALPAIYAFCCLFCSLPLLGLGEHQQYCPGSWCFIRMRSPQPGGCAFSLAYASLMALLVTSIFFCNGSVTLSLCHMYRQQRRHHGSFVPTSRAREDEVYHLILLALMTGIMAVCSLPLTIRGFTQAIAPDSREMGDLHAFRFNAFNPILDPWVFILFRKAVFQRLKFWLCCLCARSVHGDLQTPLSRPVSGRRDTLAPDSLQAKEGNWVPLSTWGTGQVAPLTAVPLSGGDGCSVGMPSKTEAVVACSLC

With `CCCCC[C@H](O)/C=C/[C@@H]1[C@H]2C/C(=C/CCCC(=O)O)O[C@H]2C[C@H]1O` [Natural prostacyclin], the chemical stability result in [1] was “easily inactivated under neutral or oxidizing conditions”.
Consider `CC#CCC(C)[C@H](O)/C=C/[C@@H]1[C@H]2C/C(=C/CCCC(=O)O)C[C@H]2C[C@H]1O` (some centres unmarked) [[^3 H] iloprost], for which the “prostacyclin binding sites found” value in series [2] is “prostacyclin binding sites in corpus striatum, amygdala, hippocampus and part of the cerebral cortex”.
As for `CC#CCC(C)[C@H](O)/C=C/[C@@H]1[C@H]2C/C(=C/CCCC(=O)O)C[C@H]2C[C@H]1O` (some centres unmarked) [iloprost], the “prevention of the binding of dopamine D1 receptors” value in the series on dopamine D1 receptors is on record as “prevention of the binding of dopamine D1 receptors”. Moreover, the “effects on the nervous system” value in the series with nervous system is “sedation, anticonvulsation, antihypoxemia (prolongation effects in hypoxemia) and synchronizing induction effects of brain waves antagonized by amphetamine”.
One may read the pIC50 as the negative decadic logarithm of the IC50, by convention in mol/L. High values mean a low IC50, low ones a high IC50. As for `Cc1cccc(C[C@H](O)/C=C/[C@@H]2[C@H]3CC(CCCCC(=O)O)=C[C@H]3C[C@H]2O)c1` [Compound B], in series [3], the activity at 0.3 µM was 39.5%, the activity at 0.03 µM is 80.5%, the activity at 0.003 µM was determined as 96.6% and the activity at 1 µM stood at 33.8%. In series [3], the activity at 0.1 µM was 54.8% and the activity at 0.01 µM turned out to be 88.3%. For the same compound, the “Binding ratio to [^3 H] isocarbacyclin receptor” value (“Binding ratio” below) in [4] (setting [7]) came to 36.6%. Moreover, in [4] (setting [8]), the “Binding ratio” value is recorded as 84.6%. Besides, the “Binding ratio” value in series [4] (setting [9]) is recorded as 98.6%. Also, the “Binding ratio” value in [4] (setting [10]) turned out to be 20.1%. Further, the “Binding ratio” value in series [4] (setting [11]) is given as 58.0%. The “Binding ratio” value in [4] (un-labelled compound 10^-8 M) was found to be 93.9%. The pIC50 in the series with platelets was 7.72.
As to `CCCCC[C@H](O)/C=C/[C@H]1[C@H](O)CC(=O)[C@@H]1CCCCCCC(=O)O` [Prostaglandin E1, reference compound], in series [5], the “reaction with the binding site of iloprost” value is listed as “the binding site of iloprost reacts also with PGE1”. Moreover, the pIC50 in the series with platelets was 7.20.
Take `Cc1cccc(CCC[C@@H](O)/C=C/[C@@H]2[C@H]3CC(CCCCC(=O)O)=C[C@H]3C[C@H]2O)c1` [Compound C]: in series [3], the activity at 0.3 µM turned out to be 71.8%, the activity at 0.03 µM was 89.9%, the activity at 0.003 µM is 95% and the activity at 1 µM worked out at 53.5%. Moreover, in [3], the activity at 0.1 µM was 81.3% and the activity at 0.01 µM is 92%. Besides, in series [4] (setting [7]), the “Binding ratio” value is recorded as 73.3%. For the same compound, in series [4] (setting [8]), the “Binding ratio” value was 93.8%. In series [4] (setting [9]), the “Binding ratio” value was found to be 98.7%. For the same compound, in series [4] (setting [10]), the “Binding ratio” value was determined as 48.1%. Also, the “Binding ratio” value in series [4] (setting [11]) is 85.9%. The “Binding ratio” value in [4] (un-labelled compound 10^-8 M) is reported as 96.1%.
With `CCCCC[C@H](O)/C=C/[C@@H]1[C@H]2CC(CCCCC(=O)O)=C[C@H]2C[C@H]1O` [Isocarbacyclin, 9(O)-methano-Δ^6(9α) prostaglandin I1], the activity at 0.3 µM in series [3] stood at 22.5%. In addition, the activity at 0.03 µM in [3] came out at 57.3%. The activity at 0.003 µM in [3] turned out to be 94%. The activity at 1 µM in series [3] was 8%. For the same compound, the activity at 0.01 µM in series [3] turned out to be 79%. Further, the “Binding ratio” value is 34.7% in [4] (setting [7]); 76.4% in [4] (setting [8]); 99.2% in series [4] (setting [9]); 19.3% in [4] (setting [10]); 62.7% in series [4] (setting [11]); 94.5% in [4] (un-labelled compound 10^-8 M). The “platelets aggregation inhibiting functions and vasodilating antihypertensive effects” value in [6] was “strong platelets aggregation inhibiting functions and vasodilating antihypertensive effects and other biological activities well comparable with those of natural prostacyclin”. The pIC50 in the series on platelets was 8.60.
As for `Cc1cccc(C[C@@H](O)/C=C/[C@@H]2[C@H]3CC(CCCCC(=O)O)=C[C@H]3C[C@H]2O)c1` [Compound A, 15R-16-(3-methylphenyl)-17, 18, 19, 20-tetranolisocarbacycline], in series [3], the activity at 0.3 µM was found to be 69.8%. Besides, in series [3], the activity at 0.03 µM was found to be 79.3%. Also, the activity at 1 µM in [3] came to 52.5%. The activity at 0.01 µM in series [3] came out at 74.1%. The activity at 0.001 µM in series [3] (un-labelled compound 10^-9 M (so in the source)) was determined as 84.7%. The “binding to the thalamic prostacyclin receptor (CNS)” value in series [4] (in words) was “firmly bound to the thalamic prostacyclin receptor (CNS)”. For the same compound, the “activity relative to the prostacyclin receptor (CNS) in the thalamus” value in series [4] (in words, compared with isocarbacyclin) was “an activity stronger than that of isocarbacyclin”. Also, the “Binding ratio” value was determined as 25.4% in series [4] (setting [7]); 67.0% in series [4] (setting [8]); 97.4% in [4] (setting [9]); 15.7% in series [4] (setting [10]); 48.3% in series [4] (setting [11]); 89.2% in series [4] (un-labelled compound 10^-8 M). Besides, the “platelet aggregation inhibiting activity” value in the series with platelets (in words) is given as “almost no platelet aggregation inhibiting activity”. Moreover, the pIC50 in the series with platelets was less than 6.40.
As to `Cc1cccc(CCC[C@H](O)/C=C/[C@@H]2[C@H]3CC(CCCCC(=O)O)=C[C@H]3C[C@H]2O)c1` [Compound D], in [3], the activity at 0.3 µM is 45.8%, the activity at 0.03 µM came out at 80.6%, the activity at 0.003 µM came out at 96.9% and the activity at 1 µM is 34.4%. Further, in [3], the activity at 0.1 µM was 55.6% and the activity at 0.01 µM stood at 92.8%. Also, in series [4] (setting [7]), the “Binding ratio” value is listed as 94.1%. Further, the “Binding ratio” value in [4] (setting [8]) stood at 98.4%. Further, in [4] (setting [9]), the “Binding ratio” value turned out to be 101.1%. The “Binding ratio” value in series [4] (setting [10]) amounted to 88.5%. In addition, the “Binding ratio” value in series [4] (setting [11]) is given as 100.8%. In addition, the “Binding ratio” value in series [4] (un-labelled compound 10^-8 M) is 99.8%.
